Data on one molecule can be found in patent US20100086483A1, “METHOD OF MULTIDETECTOR COMPUTED TOMAGRAPHY” (Gilead Palo Alto, Inc., priority 2008, published 2010).

This test has as its system conscious dogs. Put plainly: Effects of regadenoson on HR and CBF before and after metoprolol in conscious dogs. The settings on record: for Reg-induced tachycardia after metoprolol, % of control: metoprolol 1.5 mg/kg IV; for reduction of Reg-induced coronary vasodilation from control: metoprolol 1.5 mg/kg. In kind it is in vivo, dog. The method, then: Five mongrel dogs were chronically instrumented for measurements of systemic hemodynamics and coronary blood flow (CBF). The effects of regadenoson (1, 2.5 and 5 μg/kg, IV) on HR and CBF were assessed before and after administration of the β1-adrenergic receptor blocker metoprolol (1.5 mg/kg). Values of peak CBF and the duration of the two-fold increase in CBF above baseline were used to assess Reg-induced coronary vasodilation.

Turning to `COCCc1ccc(OCC(O)CNC(C)C)cc1` (stereo not drawn) [metoprolol], the “Reg-induced tachycardia after metoprolol, % of control” value by setting is: (Reg 1 μg/kg IV) 55±12 % of control; (Reg 2.5 μg/kg IV) 54±7 % of control; (Reg 5 μg/kg IV) 45±4 % of control. The “reduction of Reg-induced coronary vasodilation from control” value is 11±7% (Reg 1 μg/kg IV), 10±4% (Reg 2.5 μg/kg IV) and 21±2% (Reg 5 μg/kg IV).
